Assay [1] concerns inducible nitric oxide synthase (iNOS/NOS2). In words: iNOS expression in substantia nigra, Western blot and immunostaining. It counts as in vivo, C57BL/6 mice. The settings on record: MPTP-treated mice that also received diapocynin 300 mg/kg gavage. The method, then:
For checking inflammatory and oxidative stress markers, mice were gavaged diapocynin (300 mg/kg dose) 1 day before MPTP treatment (pre-treatment) and continued for another 4 days of co-treatment with MPTP. In the sub-acute MPTP regimen, MPTP (25 mg/kg) was injected intraperitoneally once per day from day 2 to day 7. Control mice received saline at the same dosage.
Four days after MPTP treatment, mice were perfused with 4% paraformaldehyde (PFA) and post-fixed with PFA and 30% sucrose, respectively. Next, fixed brains were cut into 30 μm sections and kept in 30% sucrose-ethylene glycol solutions at −20° C. On the day of staining, sections were rinsed with phosphate-buffered saline (PBS) and incubated with different primary antibodies, including anti-IBA-1 (DAKO, Carpinteria, Calif.), anti-GFAP (Millipore, Billerica, Mass.), anti-iNOS (Santa Cruz Biotechnology, Santa Cruz, Calif.), anti-3NT (Millipore), anti-4HNE (R&D Systems, Minneapolis, Minn.) and anti-gp91phox (Santa Cruz Biotechnology) for overnight at 4° C. Appropriate secondary antibodies (Alexa Fluor 488, 594, or 555 from Invitrogen, Carlsbad, Calif.) were used followed by incubation with 10 μg/ml Hoechst 33342 for 5 min at room temperature to stain the nucleus. Sections were viewed under a Nikon inverted fluorescence microscope (model TE-2000U; Nikon, Tokyo, Japan). Images were captured with a SPOT digital camera (Diagnostic Instruments, Inc., Sterling Heights, Mich.).
Mice were sacrificed 4 days or 7 days after MPTP treatment and substantia nigra tissue was dissected out. Brain lysates containing equal amounts of protein were loaded in each lane and separated on a 10 to 12% SDS polyacrylamide gel, as described previously (48). After the separation, proteins were transferred to a nitrocellulose membrane and nonspecific binding sites were blocked by treating with Li-Cor Odyssey blocking buffer (Li-Cor Biosciences, Lincoln, Nebr.). The membranes were then incubated with different primary antibodies including anti-TH (Millipore), anti-iNOS (Calbiochem), anti-3NT (Millipore) and anti-4HNE (R&D Systems). […]
For orientation: Immunoblotting shows a protein as a band on a membrane.

In another assay the test system is IL-12. In words: LPS-induced IL-12 release in primary microglia, LUMINEX immunoassay. It counts as cell-based, mouse. To be noted: diapocynin 10 μM, LPS 24 hr. The method, then: Primary microglia were obtained from 1-2 day old C57/b16 mouse pups. Upon collection, whole brains were kept in ice-cold DMEM-F12 medium containing 10% FBS, 1× sodium pyruvate, 1× NEAAs, 100 units pen/strep, and Q. After collection, the brains were placed in 0.25% trypsin-EDTA and incubated at 37° C., with gentle shaking every 5-10 min. After 30 min, the trypsin was removed, and the brains are washed in warmed medium twice. After washing, medium was added to the brains, and the brains were homogenized using gentle pipetting, starting with a 25 ml pipette and moving to smaller pipette tips as the brains were broken up. When the brains were sufficiently homogenized to a single-cell suspension, they were filtered with a 70 μm nylon filter, which allowed microglia and astrocytes to be collected. The resultant cell suspension was plated in T-75 flasks and allowed to grow for 12-14 days at 37° C., 5% CO2. […]
Cytokine levels of BV2 and microglial cells treated with diapocynin were determined by LUMINEX® multiplex immunoassay. […]
Cytokine standards and controls were adjusted to 40 μl volume and the LUMINEX® Samples were run on a LUMINEX® 200 Total System and analyzed with Multiplex Analysis—LUMINEX® Software (Invitrogen, Carlsbad, Calif.).

Another assay has as its system MPTP-intoxicated mice. In words: Rotarod in MPTP-injected mice. It counts as in vivo, C57BL/6 mice. To be noted: 20 rpm; MPTP- and diapocynin-treated mice; 300 mg/kg oral gavage; 5 days after last MPTP injection. As for the experimental part:
Six- to 8-week-old C57BL/6 mice weighing 24 to 28 g were housed in standard conditions of constant temperature (22±1° C.), humidity (relative, 30%), and a 12-h light/dark cycle. Mice were allowed free access to food and water. Use of the animals and protocol procedures were approved and supervised by the Committee on Animal Care at Iowa State University (Ames, Iowa). For neurodegeneration studies, mice either received diapocynin (300 mg/kg dose) by oral gavage for 1 day (pre-treatment before MPTP administration), 5 days (co-treatment with MPTP), or 7 days (post-treatment after MPTP).
Two types of behavioral tests were performed including an Open Field experiment for testing locomotor activities and a Rotarod experiment to test coordination of movement of mice after MPTP and diapocynin treatment (48, 56). An Open Field activity monitor (model RXYZCM-16; AccuScan, Columbus, Ohio) was used to measure the spontaneous activity of mice. The activity chamber was 40×40×30.5 cm, made of clear PLEXIGLAS® and covered with a PLEXIGLAS® lid with holes for ventilation. Infrared monitoring sensors were located every 2.54 cm along the perimeter (16 infrared beams along each side) and 2.5 cm above the floor. Two additional sets of 16 sensors were located 8.0 cm above the floor on opposite sides. Data were collected and analyzed by a VersaMax Analyzer (model CDA-8, AccuScan). […]
On the technique in general: The rotarod test checks motor coordination on a turning rod.

Regarding `COc1cc(C(C)=O)cc(-c2cc(C(C)=O)cc(OC)c2O)c1O` [diapocynin], in assay [1], the “colocalized cells of iNOS and GFAP in substantia nigra” value was “very few colocalized cells”; the “colocalized cells of iNOS and IBA-1 in substantia nigra” value was “very few colocalized cells”; the “staining of iNOS in substantia nigra” value is listed as “marked decrease”. For the same molecule, the “blocking LPS-induced release of IL-12” value in the assay with IL-12 is “very effective”. In the assay with MPTP-intoxicated mice, the “decrease in time spent on Rotarod compared to control mice” value is less than 25%.

Source of the values: patent publication US8962600B2, “Neuroprotective compounds and their use” (The Medical College of Wisconsin, Inc., priority 2009, dated 2015).
